Earlier results as cited in US20220008485A1, “Wound Honey” (priority 2020, published 2022).
Where two headings read alike, the source gives them in different places.

Experiments:
Pseudomonas aeruginosa = conditions: for MBC acid: acid alone; for MBC combination Acid/H2O2: acid part: acid combined with H2O2, in Bovine albumin + yeast extract 1%; for MBC combination Acid/H2O2: H2O2 part: in Bovine albumin + yeast extract 1%
spores of B. cereus = conditions: 0.1% TC, HP at 600 MPA, 7° Celsius, infant formula
[1] = in combination with silver nanoparticles
[2] = acid combined with H2O2, in Bovine albumin + yeast extract 1%
[3] = H2O2 combined with Formic acid, in Bovine albumin + yeast extract 1%

## CC(=O)O [Acetic, acetic acid]
Pseudomonas aeruginosa
  MBC acid: 0.625%
  MBC combination Acid/H2O2: acid part: 0.625%

## O=CC=Cc1ccccc1 [Cinnamaldehyde, cinnamaldehyde]
Bacillus cereus; alone
  Minimal Inhibitory Concentration, Cinnamaldehyde: 0.328 mg/mL
Bacillus cereus; [1]
  Minimal Inhibitory Concentration, Synergy Cinnamaldehyde: 0.082 mg/mL
Clostridium perfringens; alone
  Minimal Inhibitory Concentration, Cinnamaldehyde: 0.065 mg/mL
Clostridium perfringens; [1]
  Minimal Inhibitory Concentration, Synergy Cinnamaldehyde: 0.016 mg/mL

## O=CO [Formic, formic acid]
Staphylococcus aureus; acid alone
  MBC acid: 1.25%
Staphylococcus aureus; [2]
  MBC combination Acid/H2O2: acid part: 0.312%
Enterococcus hirae; acid alone
  MBC acid: 5%
Enterococcus hirae; [2]
  MBC combination Acid/H2O2: acid part: 0.625%
Listeria monocytogenes; acid alone
  MBC acid: 1.56%
Listeria monocytogenes; [2]
  MBC combination Acid/H2O2: acid part: 0.625%
Pseudomonas aeruginosa
  MBC acid: 0.025%
  MBC combination Acid/H2O2: acid part: 0.025%

## CCC(=O)O [Propionic, propionic acid]
Pseudomonas aeruginosa
  MBC acid: 0.5%
  MBC combination Acid/H2O2: acid part: 0.50%

## O=C(O)CCC(=O)O [Succinic, succinic acid]
Pseudomonas aeruginosa
  MBC acid: 0.078%
  MBC combination Acid/H2O2: acid part: 0.078%

## O=C/C=C/c1ccccc1 [TC, trans-cinnamaldehyde]
Spores of B. cereus; Week 1
  Mean logarithmic decrease in spores of B. cereus: 1.5
Spores of B. cereus; Week 2
  Mean logarithmic decrease in spores of B. cereus: 2
Spores of B. cereus; Week 3
  Mean logarithmic decrease in spores of B. cereus: 3
Spores of B. cereus; Week 4
  Mean logarithmic decrease in spores of B. cereus: 2.25
Spores of B. cereus; Week 5
  Mean logarithmic decrease in spores of B. cereus: 3
Spores of B. cereus; Week 6
  Mean logarithmic decrease in spores of B. cereus: 1.5

## OO [hydrogen peroxide]
Staphylococcus aureus; [3]
  MBC combination Acid/H2O2: H2O2 part: 1.56%
Staphylococcus aureus; hydrogen peroxide alone
  MBC hydrogen peroxide: 3.12%
Enterococcus hirae; [3]
  MBC combination Acid/H2O2: H2O2 part: 3.12%
Enterococcus hirae; hydrogen peroxide alone
  MBC hydrogen peroxide: 12.5%
Listeria monocytogenes; H2O2 combined with Formic (printed Fonnic) acid, in Bovine albumin + yeast extract 1%
  MBC combination Acid/H2O2: H2O2 part: 0.78%
Listeria monocytogenes; hydrogen peroxide alone
  MBC hydrogen peroxide: 6.25%
Pseudomonas aeruginosa; H2O2 combined with Acetic acid
  MBC combination Acid/H2O2: H2O2 part: 0.39%
Pseudomonas aeruginosa; H2O2 combined with Formic acid
  MBC combination Acid/H2O2: H2O2 part: 0.39%
Pseudomonas aeruginosa; H2O2 combined with Propionic acid
  MBC combination Acid/H2O2: H2O2 part: 0.19%
Pseudomonas aeruginosa; H2O2 combined with Succinic acid
  MBC combination Acid/H2O2: H2O2 part: 0.78%
Pseudomonas aeruginosa; hydrogen peroxide alone
  MBC hydrogen peroxide: 1.56%
